# Results published in patent publication US20240075049A1 (priority 2020, published 2024).
# Key:
# [1] = adverse reaction in a treated coronavirus patient; format: in vivo, human; details: person, doxycycline 100 mg bd added to amantadine, ivermectin, zinc
# Protocol: A front-line worker and was diagnosed with coronavirus in association with fevers, aches and fatigue. They are commenced on amantadine orally using the standard capsule of […] once daily for ten days. […] They developed a rash to the doxycycline when added and this was changed to azithromycin 250 mg bd for the duration of the ten-day course.
# [2] = in vivo; cited from earlier work
# [3] = in vivo; cited from earlier work; remark: listed apart in the source
# [4] = ivermectin toxicity at high doses, relation to LD50; format: in vivo; details: 2000 mcg/kg (120 mg in a 60 kg adult)
# [5] = more than 200 mcg/kg (12 mg), 2000 mcg/kg (120 mg) and above; cited from earlier work
compound,measurement,setting,value
C[C@H]1c2cccc(O)c2C(=O)C2=C(O)[C@]3(O)C(=O)C(C(N)=O)=C(O)[C@@H](N(C)C)[C@@H]3[C@@H](O)[C@@H]21 [doxycycline],adverse reaction,[1],rash
CCN(CCO)CCCC(C)Nc1ccnc2cc(Cl)ccc12 (centres unmarked) [hydroxychloroquine],half-life,[2],40 days
ivermectin,excretion,[3],mostly in the feces
same,dose as percentage of the LD50,[4],7%
same,toxicity at doses above the accepted therapeutic dose,[5],without any increase in ivermectin toxicity
